Test results: patent US11498903B2 (BRISTOL-MYERS SQUIBB COMPANY, priority 2017, dated 2022)
Where two headings read alike, the source gives them in different places.

Molecular target: T1, human APJ receptor (Homo sapiens, UniProt P35414)
T1 construct: expressed in transfected cells
T1 sequence (P35414 1-380): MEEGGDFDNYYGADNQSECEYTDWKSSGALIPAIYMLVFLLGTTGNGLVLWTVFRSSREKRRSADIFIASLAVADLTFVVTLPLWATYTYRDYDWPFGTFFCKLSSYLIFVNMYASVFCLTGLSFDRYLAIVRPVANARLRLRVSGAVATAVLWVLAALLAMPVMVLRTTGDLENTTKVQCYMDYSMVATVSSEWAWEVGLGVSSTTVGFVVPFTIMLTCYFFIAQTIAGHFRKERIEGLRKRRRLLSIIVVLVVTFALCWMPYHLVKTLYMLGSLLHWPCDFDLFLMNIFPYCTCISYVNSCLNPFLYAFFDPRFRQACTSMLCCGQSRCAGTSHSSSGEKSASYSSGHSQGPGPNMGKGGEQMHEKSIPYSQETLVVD
Test: Intracellular cAMP accumulation assay (APJ hcAMP, HTRF)
Type: cell-based
Settings: HEK293 cells stably expressing human APJ receptor
Description: Intracellular cAMP Accumulation Assay
HEK293 cells stably expressing human APJ receptor were used to assess the activity of compounds. Cultured cells were detached and resuspended in the cAMP Homogeneous Time-Resolved Fluorescence (HTRF) assay buffer (Cisbio cat; #62AM4PEJ). The assay was performed in 384-well assay plates (Perkin-Elmer; cat #6008289) according to assay protocol provided by the manufacturer. Serial dilutions of a compound together with assay buffer containing […] IBMX and 2 μM forskolin were added to each well containing 5,000 cells and incubated for 30 minutes at room temperature. Subsequently, cAMP D2 reagent was added in the lysis buffer followed by the EuK antibody (Cisbio; cat #62AM4PEJ) and incubated for 60 min. The fluorescence emission ratio was measured using fluorometer. The intracellular cAMP concentrations (compound-stimulated inhibition of forskolin-mediated cAMP production) were calculated by extrapolation from a standard curve using known cAMP concentrations. The EC50 values were obtained by fitting the data to a sigmoidal concentration-response curve with variable slope. The maximal achievable inhibition of forskolin-induced cAMP levels (Ymax) for each compound was expressed as relative percentage of inhibition attained using pyroglutamated apelin-13 ((Pyrl)apelin-13) peptide, which was set to 100%.
The exemplified Examples disclosed below were tested in the APJ in vitro assays described above and were found having human APJ cyclic AMP (hcAMP) activity. Table 1 lists hcAMP EC50 values measured for the following examples. Ranges are as followε: A=0.0-10 nM; B=10.01-100 nM; C=101-500 nM.

[1] = Table 1, inhibition of forskolin-mediated cAMP production, read-out: APJ hcAMP EC50
[2] = Table 3, read-out: APJ cAMP Human EC50

Row | Structure (SMILES) | EC50 [1] [nM] | EC50 [2] [nM]
1 | CCC[C@@H](NC(=O)c1ccc(-c2c(Cl)cccc2-c2nc3ccccc3[nH]2)c(C(=O)O)c1)c1ccccc1 (atropisomer, axis not shown) [Example 81, (S)-2′-(1H-benzo[d]imidazol-2-yl)-6′-chloro-4-(((R)-1-phenylbutyl)carbamoyl)-[1,1′-biphenyl]-2-carboxylic acid] | < 10 | < 10
2 | COC[C@@H](NC(=O)c1ccc(-c2c(Cl)cccc2-c2nc3ccccc3[nH]2)c(C(=O)O)c1)c1ccccc1 (atropisomer, axis not shown) [Example 82, (S)-2′-(1H-benzo[d]imidazol-2-yl)-6′-chloro-4-(((S)-2-methoxy-1-phenylethyl)carbamoyl)-[1,1′-biphenyl]-2-carboxylic acid] | – | 10 to 100
3 | CCC[C@@H](NC(=O)c1ccc(-c2c(Cl)cccc2-c2nc3cc(OC)c(F)cc3[nH]2)c(C(=O)OC)c1)c1ccccc1 (atropisomer, axis not shown) [Example 83, methyl (S)-2′-chloro-6′-(6-fluoro-5-methoxy-1H-benzo[d]imidazol-2-yl)-4-(((R)-1-phenylbutyl)carbamoyl)-[1,1′-biphenyl]-2-carboxylate] | – | 10 to 100
4 | CCC[C@@H](NC(=O)c1ccc(-c2c(Cl)cccc2-c2nc3cc(Cl)c(F)cc3[nH]2)c(C(=O)OC)c1)c1ccccc1 (atropisomer, axis not shown) [Example 86, (S)-methyl 2′-chloro-6′-(5-chloro-6-fluoro-1H-1,3-benzodiazol-2-yl)-4-{[(1R)-1-phenylbutyl]carbamoyl}-[1,1′-biphenyl]-2-carboxylate] | – | 101 to 500
5 | CCC[C@@H](NC(=O)c1ccc(-c2c(Cl)cccc2-c2nc3cc(O)c(F)cc3[nH]2)c(C(=O)O)c1)c1ccccc1 (atropisomer, axis not shown) [Example 87, (S)-2′-chloro-6′-(6-fluoro-5-hydroxy-1H-1,3-benzodiazol-2-yl)-4-{[(1R)-1-phenylbutyl]carbamoyl}-[1,1′-biphenyl]-2-carboxylic acid] | < 10 | < 10
6 | CCC[C@@H](NC(=O)c1ccc(-c2c(Cl)cccc2-c2nc3cc(Cl)cc(Cl)c3[nH]2)c(C(=O)O)c1)c1ccccc1 (atropisomer, axis not shown) [Example 94, (S)-2′-chloro-6′-(5,7-dichloro-1H-1,3-benzodiazol-2-yl)-4-{[(1R)-1-phenylbutyl]carbamoyl}-[1,1′-biphenyl]-2-carboxylic acid] | < 10 | < 10
7 | CCC[C@@H](NC(=O)c1ccc(-c2c(Cl)cccc2-c2nc3cc(Cl)cc(C)c3[nH]2)c(C(=O)O)c1)c1ccccc1 (atropisomer, axis not shown) [Example 95, (S)-2′-chloro-6′-(5-chloro-7-methyl-1H-1,3-benzodiazol-2-yl)-4-{[(1R)-1-phenylbutyl]carbamoyl}-[1,1′-biphenyl]-2-carboxylic acid] | < 10 | < 10
8 | CCC[C@@H](NC(=O)c1ccc(-c2c(Cl)cccc2-c2nc3cc(Cl)c(C)cc3[nH]2)c(C(=O)O)c1)c1ccccc1 (atropisomer, axis not shown) [Example 97, (S)-2′-chloro-6′-(5-chloro-6-methyl-1H-1,3-benzodiazol-2-yl)-4-{[(1R)-1-phenylbutyl]carbamoyl}-[1,1′-biphenyl]-2-carboxylic acid] | – | 10 to 100
9 | CCC[C@@H](NC(=O)c1ccc(-c2c(Cl)cccc2-c2nc3c(OC)ccc(OC)c3[nH]2)c(C(=O)O)c1)c1ccccc1 (atropisomer, axis not shown) [Example 98, (S)-2′-chloro-6′-(4,7-dimethoxy-1H-1,3-benzodiazol-2-yl)-4-{[(1R)-1-phenylbutyl]carbamoyl}-[1,1′-biphenyl]-2-carboxylic acid] | – | 10 to 100
10 | CCC[C@@H](NC(=O)c1ccc(-c2c(Cl)cccc2-c2ncc(-c3ccccc3)[nH]2)c(C(=O)O)c1)c1ccccc1 (atropisomer, axis not shown) [Example 102, (S)-2′-chloro-6′-(5-phenyl-1H-imidazol-2-yl)-4-{[(1R)-1-phenylbutyl]carbamoyl}-[1,1′-biphenyl]-2-carboxylic acid] | < 10 | < 10
11 | CCC[C@@H](NC(=O)c1ccc(-c2c(Cl)cccc2-c2ncc(-c3cccc(OC)c3)[nH]2)c(C(=O)O)c1)c1ccccc1 (atropisomer, axis not shown) [Example 103, (S)-2′-chloro-6′-[5-(3-methoxyphenyl)-1H-imidazol-2-yl]-4-{[(1R)-1-phenylbutyl]carbamoyl}-[1,1′-biphenyl]-2-carboxylic acid] | < 10 | < 10

Now from value to compound:

Row | EC50 [1] [nM] | EC50 [2] [nM] | Structure (SMILES)
12 | – | < 10 | CCC[C@@H](NC(=O)c1ccc(-c2c(Cl)cccc2-c2nc3cc(Cl)c(F)cc3[nH]2)c(C(=O)O)c1)c1ccccc1 (atropisomer, axis not shown) [Example 85, (S)-2′-chloro-6′-(5-chloro-6-fluoro-1H-1,3-benzodiazol-2-yl)-4-{[(1R)-1-phenylbutyl]carbamoyl}-[1,1′-biphenyl]-2-carboxylic acid]
13 | – | < 10 | CCC[C@@H](NC(=O)c1ccc(-c2c(Cl)cccc2-c2nc3ccc(F)c(F)c3[nH]2)c(C(=O)O)c1)c1ccccc1 (atropisomer, axis not shown) [Example 88, (S)-2′-chloro-6′-(6,7-difluoro-1H-1,3-benzodiazol-2-yl)-4-{[(1R)-1-phenylbutyl]carbamoyl}-[1,1′-biphenyl]-2-carboxylic acid]
14 | < 10 | < 10 | CCC[C@@H](NC(=O)c1ccc(-c2c(Cl)cccc2-c2nc3cc(F)c(F)cc3[nH]2)c(C(=O)O)c1)c1ccccc1 (atropisomer, axis not shown) [Example 89, (S)-2′-chloro-6′-(5,6-difluoro-1H-1,3-benzodiazol-2-yl)-4-{[(1R)-1-phenylbutyl]carbamoyl}-[1,1′-biphenyl]-2-carboxylic acid]
15 | < 10 | < 10 | CCC[C@@H](NC(=O)c1ccc(-c2c(Cl)cccc2-c2nc3cc(F)cc(F)c3[nH]2)c(C(=O)O)c1)c1ccccc1 (atropisomer, axis not shown) [Example 90, (S)-2′-chloro-6′-(5,7-difluoro-1H-1,3-benzodiazol-2-yl)-4-{[(1R)-1-phenylbutyl]carbamoyl}-[1,1′-biphenyl]-2-carboxylic acid]
16 | < 10 | < 10 | CCC[C@@H](NC(=O)c1ccc(-c2c(Cl)cccc2-c2nc3cccc(O)c3[nH]2)c(C(=O)O)c1)c1ccccc1 (atropisomer, axis not shown) [Example 92, (S)-2′-chloro-6′-(7-hydroxy-1H-1,3-benzodiazol-2-yl)-4-{[(1R)-1-phenlylbutyl]carbamoyl}-[1,1′-biphenyl]-2-carboxylic acid]
17 | < 10 | – | CCC[C@@H](NC(=O)c1ccc(-c2c(Cl)cccc2-c2nc3cc(F)cc(F)c3[nH]2)c(C(=O)O)c1)c1ccccc1 (atropisomer, axis not shown) [Example 96, (S)-2′-chloro-6′-(5,7-difluoro-1H-1,3-benzodiazol-2-yl)-4-{[(1R)-1-phenylbutyl]carbamoyl}-[1,1′-biphenyl]-2-carboxylic acid]
18 | 10 to 100 | 10 to 100 | CCC[C@@H](NC(=O)c1ccc(-c2c(Cl)cccc2-c2nc3cccc(O)c3[nH]2)c(C(=O)O)c1)c1ccccc1 (atropisomer, axis not shown) [Example 99, (S)-2′-chloro-6′-(7-hydroxy-1H-1,3-benzodiazol-2-yl)-4-{[(1R)-1-phenylbutyl]carbamoyl}-[1,1′-biphenyl]-2-carboxylic acid]
